{"source": "patent US9045488B2", "about": "“PAA nanoparticles for tumor treatment and imaging” (Photolitec, LLC, priority 2012, dated 2015)", "key": {"Colon 26 cancer cells": {"system": "Colon 26 cancer cells", "assay": "MTT assay, percent survival of Colon 26 cancer cells with/without light treatment", "format": "cell-based", "details": "Colon 26 cells, 24 h incubation, no light or light 0.25-2 Joules; relative to the unconjugated compound", "description": "FIG. 3 is a graph showing percent survival of Colon 26 cancer cells relative to concentration in the form of MTT Assay of compound PS815 vs. PS815 conjugated to PAA nanoparticle vs. PS815 both conjugated and post-loaded on PAA nanoparticle without light treatment.\nFIG. 4 is a graph showing percent survival of Colon 26 cancer cells relative to concentration in the form of MTT Assay of compound PS815 vs. PS815 conjugated to PAA nanoparticle vs. PS815 both conjugated and post-loaded on PAA nanoparticles. Light treatment was done at 0.25 Joules following 24 h incubation in Colon 26 cells.\nFIG. 5 is a graph showing percent survival of Colon 26 cancer cells relative to concentration in the form of MTT Assay of compound PS815 vs. PS815 conjugated to PAA nanoparticle vs. PS815 both conjugated and post-loaded on PAA nanoparticles. Light treatment was done at 0.5 Joules following 24 h incubation in Colon 26 cells.\nFIG. 6 is a graph showing percent survival of Colon 26 cancer cells relative to concentration in the form of MTT Assay of compound PS815 vs. PS815 conjugated to PAA nanoparticle vs. PS815 both conjugated and post-loaded on PAA nanoparticles. Light treatment was done at one Joule following 24 h incubation in Colon 26 cells. […]"}, "COLO-26 tumor": {"system": "COLO-26 tumor", "assay": "In vivo fluorescence imaging, Maestro GNIR-Flex, mice with induced COLO-26 tumor", "set-up": "species or system Balb/c mice", "details": "4-48 hours post i.v. 0.47 mmoles/kg; excitation 575-605 nm, emission 645 nm long pass", "description": "The images are color enhanced by computer assignment of color depth relative to fluorescent intensity. Exposure was 100 ms (fluorescence 0 and 8 ms 9 white light). […] The images are color enhanced by computer assignment of color depth relative to fluorescent intensity. […] The images are color enhanced by computer assignment of color depth relative to fluorescent intensity. […] The images are color enhanced by computer assignment of color depth relative to fluorescent intensity."}}, "note": "Entries after “also recorded” stand apart in the source; their conditions may differ."}
{"substance": "20-carboxyphenyl-2-[1-hexyloxyethyl]-2-devinyl pyropheophorbide-a methyl ester [PS812]", "values": [{"measurement": "toxicity to the tumor cells (MTT assay, percent survival), effect of conjugation with nanoparticles", "setting": "Colon 26 cancer cells", "result": "unexpectedly increases toxicity to the cancer cells"}, {"measurement": "fluorescent image clarity and definition / fluorescence imaging", "setting": "COLO-26 tumor", "result": "unexpectedly superior fluorescent imaging; also recorded: superiority of fluorescence imaging"}]}
